Reference: US7271148B2, “Inhibition of cellular proteases” (The Board of Regents of The University of Texas System, priority 1999, dated 2007)

System: p21^cip1 abundance in mock-infected LU cells
Experiment: Western blot of p21cip1 abundance in mock-infected, density-arrested LU cells
Assay type: cell-based, human
Details: E64d 100 μM, mock-infected cells
Description: Cell culture and growth arrest. LU cells (3) were propagated in Eagle's minimum essential medium containing 10% fetal bovine serum and penicillin (100 units/ml)/streptomycin (100 μg/ml) in a 5% CO2 in air atmosphere. The cells were density-arrested as described previously in detail (18).
Virus stocks and productive infection. The AD169 strain of HCMV was propagated in LU cells as previously described in detail (6). The infectivity of virus stocks was determined by plaque assay (3). Virus stocks typically had infectivities between 8.0×10^6 and 4.0×10^7 plaque-forming units (PFU)/milliliter. LU cells were infected with HCMV as described in detail by Bresnahan et al. (18). Virus stocks and cell cultures were routinely examined for mycoplasma.
Western blots. Polyclonal or monoclonal antibody for p21^cip1 was obtained from Santa Cruz Biotechnology, Inc. (Santa Cruz, Calif.). Monoclonal antibodies against m-calpain, μ-calpain or calpastatin were generously provided by Dr. R. I. Mellgren (see also 75). Cells were harvested as described previously (18) by dislodging the cells with a cell lifter in phosphate buffered saline. The cells were collected by sedimentation and lysed in NP-40 lysis buffer [50 mM Tris, pH 7.4, 50 mM NaCl, 0.5% NP-40, and 1 mM NaVO3, 50 mM NaF, 1mM phenylmethylsulfonyl fluoride (PMSF), 1 mM dithiothreitol (DTT), 25 μg/ml trypsin inhibitor, 25 μg/ml aprotinin, 1 mM benzamide, and 25 μg/ml pepstatin A added just before use]. Cellular debris was removed by sedimentation and the supernatant fluids were reserved. The protein concentration was determined by the BCA protein assay (Pierce, Rockford, Ill.). Whole cell extracts (40 μg/lane) were fractionated by SDS-polyacrylamide gel electrophoresis (PAGE), and the polypeptides were transferred to nitrocellulose membranes (Bio-Rad Laboratories, Hercules, Calif.) as described previously (18). Antigen-antibody reactions were detected with the enhanced chemiluminescent assay (Amersham Pharmacia Biotech) following the manufacturer's recommendations.
FIGS. 5 and 6. The effect of MG132, an inhibitor of proteasome degradation, on p21^cip1 abundance in HCMV- or mock-infected, density-arrested LU cells. 5. LU cells were density arrested, as described in Materials and Methods. The cell cultures were HCMV (5 PFU/cell)- or mock-infected and then exposed to selected concentrations of MG132 at 24 hr PI. Cell lysates were prepared at 30 hr PI (i.e., 6 hr after […] treatment), and 40 μg of protein from each lysate was resolved by SDS-PAGE. The proteins were transferred to nitrocellulose and probed with antibodies against p21^cip1. Control, cells cultured in the absence of MG132 or its solvent, DMSO. 0, DMSO solvent control, consisting of cells treated with the same concentration of DMSO (0.1%) present in the cultural fluids containing highest concentration of MG132 (10 μM). 6. Represents the abundance of p21^cip1 after MG132 treatment determined by densitometry of the data illustrated in FIG. 5. The data for mock-infected cells (open bars) were calculated relative to the p21^cip1 abundance in untreated mock-infected cells, while the data for HCMV-infected cells (closed bars) were determined relative to the p21^cip1 abundance in untreated HCMV-infected cells.
FIGS. 7 and 8. […]
At the times indicated in the FIG., whole cell lysates were prepared, and 40 μg of protein from each lysate was analyzed by SDS-PAGE. […]

SMILES: CC(C)C[C@H](NC(=O)[C@H]1O[C@@H]1C(=O)O)C(=O)NCCCCN=C(N)N (relative stereo) [E64d, trans-epoxysuccinyl-L-leucylamido (4-guanidino)-butane]
- effect on p21^cip1 levels in mock-infected cells (in words): little, if any, effect
- increase in p21^cip1 (3 hr post-treatment (treatment from 48 hr PI)): ~56%
